From ChEMBL document CHEMBL1136236, “Design and parallel synthesis of piperidine libraries targeting the nociceptin (N/OFQ) receptor” (Bioorg Med Chem Lett, 2003) come the findings set out here.

Assay [1] addresses T1, Kappa-type opioid receptor (Homo sapiens, UniProt P41145). Kind of assay: Antagonistic activity against opioid receptor kappa 1; not active. It counts as functional.
For assay [2], the target named is T2, Nociceptin receptor (Homo sapiens, UniProt P41146). Put plainly: Antagonistic activity against orphan FQ receptor. It counts as functional.
Assay [3] concerns the target T3, Mu-type opioid receptor (Homo sapiens, UniProt P35372). Kind of assay: Antagonistic activity against opioid receptor mu1. It counts as functional.
For assay [4], the target named is T3, Mu-type opioid receptor. Kind of assay: Selectivity ratio of Opioid receptor mu 1 binding to Orphanin FQ receptor.
Assay [5] concerns the target T4, Delta-type opioid receptor (Homo sapiens, UniProt P41143). Kind of assay: Antagonistic activity against Opioid receptor delta 1. It counts as functional.
Assay [6] addresses T2, Nociceptin receptor. Put plainly: Binding affinity against human orphanin FQ receptor expressed in recombinant HEK 293 cells. It counts as cell-based, HEK293.
Assay [7] has as its target T2, Nociceptin receptor. Kind of assay: Inhibitory activity against human orphanin FQ receptor expressed in recombinant HEK 293 cells. The settings on record: HEK293; concentration not given here. More on the design: concentration or dose not given beside the values. It counts as cell-based.
The target in assay [8] is T1, Kappa-type opioid receptor. Put plainly: Antagonistic activity against opioid receptor kappa 1. It counts as functional.
The target of assay [9] is T4, Delta-type opioid receptor. Kind of assay: Antagonistic activity against Opioid receptor delta 1; not active. Type of assay: functional.
Assay [10] addresses T2, Nociceptin receptor. Kind of assay: Inhibitory activity against human orphanin FQ receptor expressed in recombinant HEK 293 cells; in active. Type of assay: cell-based. As to conditions: HEK293.
Assay [11] addresses T2, Nociceptin receptor. Put plainly: Inhibitory activity against human orphanin FQ receptor expressed in recombinant HEK 293 cells; inactive. It counts as cell-based. The settings on record: HEK293.

Activity calls are given as the source filed them. No cut-off for these calls is given here. A value given as a limit tells only on which side of the number the result lay.

T1 sequence (P41145 whole entry): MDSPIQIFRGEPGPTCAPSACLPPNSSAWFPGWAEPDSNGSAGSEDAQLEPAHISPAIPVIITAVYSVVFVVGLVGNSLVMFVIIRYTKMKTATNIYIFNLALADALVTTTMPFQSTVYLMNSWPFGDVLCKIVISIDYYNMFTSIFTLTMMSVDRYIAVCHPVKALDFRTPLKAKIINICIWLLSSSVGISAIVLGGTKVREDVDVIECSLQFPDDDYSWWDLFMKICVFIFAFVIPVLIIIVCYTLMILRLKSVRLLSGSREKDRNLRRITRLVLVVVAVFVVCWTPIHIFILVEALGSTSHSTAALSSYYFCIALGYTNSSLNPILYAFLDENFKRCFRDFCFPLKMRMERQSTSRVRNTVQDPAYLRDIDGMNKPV
T2 sequence (P41146 whole entry): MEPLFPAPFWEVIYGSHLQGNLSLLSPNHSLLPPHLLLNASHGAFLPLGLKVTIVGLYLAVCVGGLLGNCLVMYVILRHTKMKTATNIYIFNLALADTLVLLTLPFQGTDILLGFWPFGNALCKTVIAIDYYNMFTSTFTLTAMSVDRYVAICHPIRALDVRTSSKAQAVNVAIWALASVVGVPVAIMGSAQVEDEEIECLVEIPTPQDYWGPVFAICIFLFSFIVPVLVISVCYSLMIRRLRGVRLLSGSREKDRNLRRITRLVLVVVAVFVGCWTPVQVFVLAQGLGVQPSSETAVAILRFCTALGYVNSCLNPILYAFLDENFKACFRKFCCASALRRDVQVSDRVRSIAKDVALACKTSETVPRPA
T3 sequence (P35372 whole entry): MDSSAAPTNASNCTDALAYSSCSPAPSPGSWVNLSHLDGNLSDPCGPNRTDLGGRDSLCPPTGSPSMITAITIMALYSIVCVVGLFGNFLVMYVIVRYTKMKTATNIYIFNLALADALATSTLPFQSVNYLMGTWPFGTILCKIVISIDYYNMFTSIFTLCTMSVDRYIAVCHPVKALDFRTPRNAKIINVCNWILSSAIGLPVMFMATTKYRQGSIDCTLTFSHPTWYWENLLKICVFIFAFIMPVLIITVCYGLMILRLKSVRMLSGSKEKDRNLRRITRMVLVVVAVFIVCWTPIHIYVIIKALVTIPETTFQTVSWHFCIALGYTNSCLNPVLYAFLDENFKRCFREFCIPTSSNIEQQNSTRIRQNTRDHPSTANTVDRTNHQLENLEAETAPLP
T4 sequence (P41143 whole entry): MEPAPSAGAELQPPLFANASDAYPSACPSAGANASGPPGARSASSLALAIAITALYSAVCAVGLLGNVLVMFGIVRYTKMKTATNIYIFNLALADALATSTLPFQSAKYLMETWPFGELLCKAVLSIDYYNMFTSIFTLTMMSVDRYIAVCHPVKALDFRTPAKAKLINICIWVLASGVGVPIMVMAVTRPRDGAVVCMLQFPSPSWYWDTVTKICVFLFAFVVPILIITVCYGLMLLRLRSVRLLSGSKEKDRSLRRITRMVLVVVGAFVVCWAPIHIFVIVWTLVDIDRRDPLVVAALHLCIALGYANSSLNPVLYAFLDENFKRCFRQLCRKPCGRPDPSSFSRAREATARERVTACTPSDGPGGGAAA

With `OC1(c2cccc(C(F)(F)F)c2)CCN(CCC(c2ccccc2)c2ccccc2)CC1`, the Ki result in assay [1] was “Not Active”; in assay [2], 116 nM; in assay [3], 1 nM; in [5], 9390 nM. In addition, in assay [4], the Selectivity ratio was found to be 0.01.
Take `N#CC1(c2ccccc2)CCN(Cc2ccc(Cl)c(Cl)c2)CC1`: the Ki in assay [6] was found to be 1270 nM. Also, the inhibition in assay [7] stood at 65%.
The like results for `OC1(c2ccc(Cl)cc2)CCN(Cc2ccc3ccccc3c2)CC1` were, in that order, 153 nM and 90%.
Regarding `O=C(COCc1ccccc1)N1CCC(O)(c2ccc(Br)cc2)CC1`, the Ki in assay [6] was over 10000 nM. In assay [7], the inhibition is 50%.
With `CCCC1CCC(N2CCC(O)(c3cccc(C(F)(F)F)c3)CC2)CC1` (configuration not stated), the Ki in [8] is 6000 nM; in [2], 135 nM; in assay [9] it was “Not Active”; in assay [3] it was 46 nM. For the same compound, the Selectivity ratio in [4] was 0.34.
For the compound `OC1(c2cccc(C(F)(F)F)c2)CCN(Cc2ccc3ccccc3c2)CC1`, in assay [6], the Ki amounted to 715 nM. In assay [7], the inhibition is 85%.
`CC(C)C1CCC(N2CCC(O)(c3ccc(Cl)c(C(F)(F)F)c3)CC2)CC1` (configuration not stated): the inhibition constant (Ki) entry in [1] was “Not Active”; in assay [2] it was 33 nM; in assay [3], 8 nM; in assay [5], 10000 nM. In addition, in assay [4], the Selectivity ratio stood at 0.24.
As to `OC1(c2ccc(Cl)cc2)CCN(Cc2ccc(C(F)(F)F)cc2)CC1`, the inhibition constant (Ki) in assay [6] was 307 nM. In addition, the inhibition in [7] was 85%.
Regarding `OC1(c2cccc(C(F)(F)F)c2)CCN(CC2CCCCCCC2)CC1`, the Ki is 4240 nM in [8], 102 nM in [2], “Not Active” in assay [9] and 113 nM in assay [3]. Moreover, the Selectivity ratio in [4] is 1.11.
`OC1(c2cccc(C(F)(F)F)c2)CCN(Cc2ccc(F)cc2)CC1`: the Ki in assay [6] stood at 692 nM. Further, in assay [7], the inhibition turned out to be 80%.
For `OC1(c2cccc(C(F)(F)F)c2)CCN(Cc2ccc(C(F)(F)F)cc2)CC1`, in [6], the inhibition constant (Ki) was found to be 6520 nM.
For the compound `OC1(c2ccc(Cl)c(C(F)(F)F)c2)CCN(CC2CCCCCCC2)CC1`, the inhibitory constant (Ki) in [8] came out at 1650 nM; in assay [2] it was 47 nM; in [3], 124 nM; in assay [5] it was 8780 nM. In addition, in assay [4], the Selectivity ratio stood at 2.64.
With `N#CC1(c2ccccc2)CCN(Cc2ccc(F)cc2)CC1`, the inhibition constant (Ki) in [6] is over 10000 nM. In addition, the inhibition in [7] stood at 55%.
As for `OC1(c2ccc(Cl)c(C(F)(F)F)c2)CCN(Cc2ccc3ccccc3c2)CC1`, in assay [6], the Ki came to 879 nM. Besides, the inhibition in assay [7] came out at 70%.
For the compound `OC1(c2cccc(C(F)(F)F)c2)CCN(C2CCC3CCCCC3C2)CC1` (configuration not stated), the inhibitory constant (Ki) result was “Not Active” in assay [1], 12 nM in assay [2], 21 nM in assay [3] and 10000 nM in assay [5]. Also, the Selectivity ratio in assay [4] turned out to be 1.75.
Consider `OC1(c2ccc(Cl)c(C(F)(F)F)c2)CCN(CCC(c2ccccc2)c2ccccc2)CC1`, for which the Ki entry in assay [1] was “Not Active”; in [2], 225 nM; in assay [9], “Not Active”; in assay [3], 4 nM. Further, the Selectivity ratio in assay [4] is 0.02.
Take `N#CC1(c2ccccc2)CCN(Cc2ccc3ccccc3c2)CC1`: the Ki in [6] stood at 1110 nM. The inhibition in assay [7] is 70%.
For `OC1(c2ccc(Cl)c(C(F)(F)F)c2)CCN(C2Cc3ccccc3C2)CC1`, the inhibition constant (Ki) entry is “Not Active” in assay [1], 82 nM in assay [2], 19 nM in [3] and 10000 nM in [5]. The Selectivity ratio in [4] came out at 0.23.
Regarding `CC(C)C1CCC(N2CCC(O)(c3cccc(C(F)(F)F)c3)CC2)CC1` (configuration not stated), the affinity in assay [8] corresponds to a Ki of 4150 nM.
Consider `OC1(c2ccc(Cl)c(C(F)(F)F)c2)CCN(Cc2ccc(C(F)(F)F)cc2)CC1`, for which the Ki in assay [6] was 1190 nM. Also, in [7], the inhibition stood at 55%.
Take `N#Cc1ccc(CN2CCC(O)(c3ccc(Cl)c(C(F)(F)F)c3)CC2)cc1`: in assay [10], the inhibition result is “inactive”. In addition, the Ki in assay [6] was over 10000 nM.
On to `OC1(c2ccc(Cl)c(C(F)(F)F)c2)CCN(Cc2ccc(F)cc2)CC1`, for which the inhibition constant (Ki) in assay [6] stood at 234 nM. Further, in [7], the inhibition was determined as 90%.
In the case of `OC1(c2ccc(Cl)cc2)CCN(CC2CCCCCCC2)CC1`, the Ki result was “Not Active” in assay [1], 502 nM in assay [2], “Not Active” in [9] and 626 nM in [3]. Further, in [4], the Selectivity ratio stood at 1.25.
On to `N#CC1(c2ccccc2)CCN(Cc2cccc3ccccc23)CC1`, for which the Ki in assay [6] worked out at 827 nM. Also, the inhibition in assay [7] is 55%.
Regarding `Cc1ccc2ccccc2c1CN1CCC(C#N)(c2ccccc2)CC1`, the Ki in [6] was over 10000 nM. In assay [11], the inhibition entry is “inactive”.
With `O=[N+]([O-])c1ccc(CN2CCC(O)(c3ccc(Cl)c(C(F)(F)F)c3)CC2)o1`, the Ki in [6] was over 10000 nM. For the same compound, the inhibition entry in [11] was “inactive”.

By Ki is commonly meant the dissociation constant of the complex between target and ligand, obtained from inhibition or displacement. In general, inhibition refers to how much of the control response was suppressed.
